Laboratory results reported in article PMC10671648, “Nucleation of α-Synuclein Amyloid Fibrils Induced by Cross-Interaction with β-Hairpin Peptides Derived from Immunoglobulin Light Chains” (International Journal of Molecular Sciences, 2023).

How the values were obtained:
αSyn(61–140) = test: ThT aggregation assay of αSyn(61–140) under quiescent conditions; format: biochemical; details: concentrations up to 50 µM
Method: Figure 5 Modulation of aggregation of truncated αSyn variants by SMAhp (left) and LENhp (right) in ThT assay under quiescent conditions. Buffer, 30 mM Tris-HCl, pH 7.4, with indicated salt concentration. ThT time course and AFM images of (A,C) 25 µM αSyn(1–95) or (B,D) 25 µM αSyn(61–140) in the absence (gray) and presence of SMAhp (A,B) or LENhp (C,D). Frames around the AFM images correspond to the frames in the kinetics diagrams for indication of the sample; the same color coding for SMAhp and LENhp concentrations as in the kinetic diagrams was used for the AFM image frames.
αSyn(1–95) and αSyn(61–140) were expressed from codon-optimized gene sequences in the pT7–7 vector in Escherichia coli BL21DE3, without N-terminal acetylation. Expression and purification were performed as for full-length αSyn, with the difference that, for αSyn(1–95), the anion exchange chromatography step was replaced by cation exchange chromatography using a 5 mL HiTrap SP FF column (Cytiva, Marlborough, MA, USA) and 10 mM sodium acetate buffer, pH 5, with elution in a NaCl gradient from 0 to 500 mM.
Aggregation kinetics were monitored in Greiner 96-well half-area, clear bottom, low-binding plates via ThT fluorescence in a BMG CLARIOstar plate reader. […] Plates were covered with sealing tape, placed in the plate reader, heated to 37 °C, and ThT fluorescence was read using bottom optics.

Net charge at neutral pH = format: physicochemical
αSyn = αSyn (Homo sapiens, UniProt P37840); details: agitation conditions; ref [62]; cited from earlier work
β-wrapin AS10 = details: cited from earlier work

NCCCNCCCCNCCCN [spermine]
effect of spermine on ThT fluorescence of αSyn(61–140) (αSyn(61–140)): did not lead to any increase in ThT fluorescence | net charge at neutral pH (Net charge at neutral pH): +4 | effect on αSyn fibril formation under agitation (αSyn): promote αSyn fibril formation

IAPP: islet amyloid polypeptide, disease-related amyloid protein (KCNTATCATQRLANFLVHSSNNFGAILSSTNVGSNTY; Islet amyloid polypeptide; UniProt P10997 34-70, looked up)
NMR pattern with AS10 (glycine region and downfield amide resonances) (β-wrapin AS10; 1H-15N HSQC NMR of 15N-AS10, ref [57]): The same pattern has been observed before | Kd (β-wrapin AS10; read-out: KD for AS10, ref [57]): 910 nM | affinity for AS10 (β-wrapin AS10; ref [56,57,58]): sub-micromolar affinity
